We go through one molecule from US20260014153A1, “ELACESTRANT IN COMBINATION WITH ABEMACICLIB IN WOMEN WITH BREAST CANCER” (RADIUS PHARMACEUTICALS, INC., priority 2018, published 2026).

Data set [1] is described as follows: standardized uptake value in tissues not significantly expressing ER. In kind it is in vivo, human. Particulars: 200 mg or up to 500 mg q.d.; uterus, muscle, bone tissues not significantly expressing ER.
The subject of data set [2] is tumors expressing wild-type ERα. As to the kind of experiment: growth of tumors expressing wild-type ERα. In kind it is in vivo.
Data set [3] concerns ER+ breast cancer with both wild-type and mutant ESR1. The conditions noted are these: models of ER+ breast cancer, single agent and in combination with a CDK4/6 inhibitor; cited from earlier work.
Data set [4] concerns brain metastasis xenograft. As to the kind of experiment: brain metastasis xenograft model. The conditions noted are these: in vivo.
Data set [5] deals with T1, ERα (Homo sapiens, UniProt P03372).
T1 sequence (P03372 1-595): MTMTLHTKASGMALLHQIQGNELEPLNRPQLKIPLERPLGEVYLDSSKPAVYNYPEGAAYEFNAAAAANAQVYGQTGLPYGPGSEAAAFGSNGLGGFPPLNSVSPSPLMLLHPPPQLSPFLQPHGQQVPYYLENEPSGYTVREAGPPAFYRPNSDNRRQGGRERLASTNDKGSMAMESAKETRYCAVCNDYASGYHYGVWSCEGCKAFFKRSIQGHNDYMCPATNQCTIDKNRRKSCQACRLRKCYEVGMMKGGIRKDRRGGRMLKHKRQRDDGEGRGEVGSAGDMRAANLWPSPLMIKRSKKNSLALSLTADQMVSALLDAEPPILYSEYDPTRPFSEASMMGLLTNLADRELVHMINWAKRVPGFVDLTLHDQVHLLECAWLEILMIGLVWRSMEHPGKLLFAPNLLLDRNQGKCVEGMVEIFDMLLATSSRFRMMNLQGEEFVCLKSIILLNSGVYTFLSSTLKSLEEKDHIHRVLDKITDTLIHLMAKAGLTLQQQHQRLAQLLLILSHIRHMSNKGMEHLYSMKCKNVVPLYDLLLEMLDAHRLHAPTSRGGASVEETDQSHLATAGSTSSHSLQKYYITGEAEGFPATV
Particulars: cited from earlier work.

Data set [6] deals with T2, ER in the uterus and pituitary (Homo sapiens, UniProt P03372).
T2 construct: from tissue; host or cells: uterus and pituitary, in vivo
T2 sequence (P03372 1-595): T1 sequence (P03372 1-595)
As to the kind of experiment: estradiol binding to ER by FES-PET imaging. In kind it is in vivo. Particulars: uterine and pituitary tissue. As for the experimental part:
In these experiments, estradiol binding to ER in uterine and pituitary tissue was evaluated by FES-PET imaging.

The test system of data set [7] is ER+ breast cancer. Particulars: monotherapy; models including fulvestrant-insensitive, estrogen-independent and/or ESR1-mutant; cited from earlier work.
The test system of data set [8] is tumors expressing Y537S ERα. In words: growth of tumors expressing mutant ERα. Format: in vivo.
A short description of data set [9]: half life after PO dosing. In kind it is in vivo. The conditions noted are these: humans.
The subject of data set [10] is uterine tissues. As to the kind of experiment: estradiol stimulation of uterine tissues in ovariectomized rats. Format: in vivo.
Data set [11] is described as follows: bone loss in ovariectomized rats. In kind it is in vivo.
In data set [12] the test system is breast cancer tumor. As to the kind of experiment: animal xenograft model of breast cancer. The conditions noted are these: in vivo.

`CCNCCc1ccc(CN(CC)c2cc(OC)ccc2[C@@H]2CCc3cc(O)ccc3C2)cc1` [RAD1901]: the “change in standardized uptake value (SUV) pre- and post-treatment” value in [1] is given as “hardly any changes”. The “inhibition of tumor growth” value in [2] was “inhibit tumor growth”. The “inhibition of tumor growth” value in [3] is on record as “effective in inhibiting tumor growth”. Further, in data set [4], the blood-brain barrier penetration entry is “capable of penetrating the blood-brain barrier” and the survival result is “significantly prolonged survival”. In addition, the “binding preference ERα versus ERβ” value in data set [5] is given as “preferentially bind ERα”. Moreover, in [6], the “observed level of ER binding after treatment” value was “at or below background levels”. Moreover, the antitumor activity entry in data set [7] was “demonstrated antitumor activity”. In addition, the “inhibition of tumor growth” value in data set [8] is on record as “unexpected ability to inhibit the growth of tumors”. Moreover, in data set [9], the half life entry is “surprisingly long half life”. Also, the “estradiol stimulation of uterine tissues” value in [10] was “antagonized estradiol stimulation”. Further, the bone loss result in data set [11] is “protects against bone loss”. Also, in data set [12], the “accumulation within tumor cells” value is “significant accumulation” and the “breast cancer tumor growth” value is given as “inhibiting breast cancer tumor growth”.
